The compounds below were run against T1, phospho p-38 alpha kinase (Homo sapiens, UniProt Q16539) (assay: P-38 alpha kinase assay (spectrophotometric, pyruvate kinase/lactate dehydrogenase coupled)). Details: Table 3; rates at […] to 2 h; read-out: IC50.
T1 construct: purchased Panvera
Assay type: biochemical
Experimental: In this assay, the oxidation of NADH was continuously measured spectrophometrically. […] The reaction was initiated by adding ATP. The absorption at 340 nm was monitored continuously for up to 4 hours at 30° C. on Polarstar Optima plate reader (BMG). The kinase activity (reaction rate) was calculated from the slope at the time frame from 1.5 h to 2 h.
For inhibition determinations, test compounds were incubated with the reaction mixture for ˜5 min before adding ATP to start the reaction. […] IC50 values were calculated from a series of % inhibition values determined at a range of concentrations of each inhibitor using Prism to process the data and fit inhibition curves. Generally, the rates obtained at the time frame of 1.5 h to 2 h were used for these calculations.

T1 sequence (Q16539 whole entry): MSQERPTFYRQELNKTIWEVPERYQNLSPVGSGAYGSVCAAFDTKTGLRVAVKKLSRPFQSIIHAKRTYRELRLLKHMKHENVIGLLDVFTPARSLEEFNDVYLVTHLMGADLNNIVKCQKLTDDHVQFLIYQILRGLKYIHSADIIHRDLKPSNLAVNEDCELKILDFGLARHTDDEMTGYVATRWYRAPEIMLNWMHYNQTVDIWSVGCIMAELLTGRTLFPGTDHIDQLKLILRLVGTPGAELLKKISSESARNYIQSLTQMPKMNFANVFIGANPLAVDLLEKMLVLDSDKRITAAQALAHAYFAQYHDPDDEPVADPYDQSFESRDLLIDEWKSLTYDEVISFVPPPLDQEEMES

IC50 [µM] | Compound
0.008 | CC(C)(C)c1cc(NC(=O)Nc2cccc(F)c2F)n(-c2ccc(CC(=O)O)cc2)n1 [Example 204, 2-(4-(3-t-butyl-5-(3-(2,3-difluorophenyl)ureido)-1H-pyrazol-1-yl)-phenyl)acetic acid]

Same assay, conditions: Table 5; @ 0.1 uM

Compound | % @ concentration, uM [%]
CC(C)(C)c1cc(NC(=O)Nc2cccc(Cl)c2Cl)n(-c2cccc(Cn3c(=O)[nH]n(-c4ccccc4)c3=O)c2)n1 [Example 396, 1-(3-t-butyl-1-{3-[(3,5-dioxo-1-phenyl-1,2,4-triazolidin-4-yl)methyl]phenyl}-1H-pyrazol-5-yl)-3-(2,3-dichlorophenyl)urea] | 3
CCOC(=O)c1ccc(-n2nc(C)cc2NC(=O)Nc2cccc(Cl)c2Cl)cc1 [Example 346, ethyl 4-{5-[3-(2,3-dichlorophenyl)ureido]-3-methyl-1H-pyrazol-1-yl}benzoate] | 19
CC(C)(C)c1cc(NC(=O)Nc2ccc(Cl)cc2)n(-c2cccc(CC(=O)O)c2)n1 [Example 399, 2-(3-{3-t-butyl-5-[3-(4-chlorophenyl)ureido]-1H-pyrazol-1-yl-}phenyl)acetic acid] | 21
COC(=O)COc1ccc(-n2nc(C(C)(C)C)cc2NC(=O)Nc2cccc3ccccc23)cc1 [Example 416, 1-(3-t-butyl-1-(4-(carbomethoxymethyl)oxyphenyl)-1H-pyrazol-5-yl)-3-(naphthalen-1-yl)urea] | 67
CC(C)(C)c1cc(NC(=O)Nc2ccc(Cl)cc2)n(-c2cccc(Cn3c(=O)[nH]n(-c4ccccc4)c3=O)c2)n1 [Example 392, 1-(3-t-butyl-1-{3-[(3,5-dioxo-1-phenyl-1,2,4-triazolidin-4-yl)methyl]phenyl}-1H-pyrazol-5-yl)-3-(4-chlorophenyl)urea] | 75

Same assay, conditions: Table 5; @ 1 uM

Compound | % @ concentration, uM [%]
CC(C)(C)c1cc(NC(=O)Nc2cccc(Cl)c2Cl)n(-c2cccc(Cn3c(=O)[nH]n(-c4ccccc4)c3=O)c2)n1 [Example 396, 1-(3-t-butyl-1-{3-[(3,5-dioxo-1-phenyl-1,2,4-triazolidin-4-yl)methyl]phenyl}-1H-pyrazol-5-yl)-3-(2,3-dichlorophenyl)urea] | 56
CN(C)C(=O)NCc1cccc(-n2nc(C(C)(C)C)cc2NC(=O)Nc2cccc3ccccc23)c1 [Example 384, 1-{3-t-butyl-1-[3-(3,3-dimethylureidomethyl)phenyl]-1H-pyrazol-5-yl}-3-(naphthalen 1-yl)urea] | 72
CCOC(=O)c1ccc(-n2nc(C)cc2NC(=O)Nc2cccc(Cl)c2Cl)cc1 [Example 346, ethyl 4-{5-[3-(2,3-dichlorophenyl)ureido]-3-methyl-1H-pyrazol-1-yl}benzoate] | 63
CC(C)(C)c1cc(NC(=O)Nc2ccc(Cl)cc2)n(-c2cccc(CC(=O)O)c2)n1 [Example 399, 2-(3-{3-t-butyl-5-[3-(4-chlorophenyl)ureido]-1H-pyrazol-1-yl-}phenyl)acetic acid] | 74
COC(=O)COc1ccc(-n2nc(C(C)(C)C)cc2NC(=O)Nc2cccc3ccccc23)cc1 [Example 416, 1-(3-t-butyl-1-(4-(carbomethoxymethyl)oxyphenyl)-1H-pyrazol-5-yl)-3-(naphthalen-1-yl)urea] | 83
CC(C)(C)c1cc(NC(=O)Nc2ccc(Cl)cc2)n(-c2cccc(Cn3c(=O)[nH]n(-c4ccccc4)c3=O)c2)n1 [Example 392, 1-(3-t-butyl-1-{3-[(3,5-dioxo-1-phenyl-1,2,4-triazolidin-4-yl)methyl]phenyl}-1H-pyrazol-5-yl)-3-(4-chlorophenyl)urea] | 86

Same assay, conditions: Table 5; @ 2 uM

Compound | % @ concentration, uM [% @ 2]
O=C(Nc1ccc(Cl)cc1)Nc1cc(C(F)(F)F)nn1-c1ccc(CO)cc1 [Example 339, 1-(4-chlorophenyl)-3-{3-(trifluoromethyl)-1-[4-(hydroxyl-methyl)phenyl]-1H-pyrazol-5-yl}urea] | 9

Same assay, conditions: Table 5; @ 10 uM

Compound | % @ concentration, uM
CN(C)C(=O)NCc1cccc(-n2nc(C(C)(C)C)cc2NC(=O)Nc2cccc3ccccc23)c1 [Example 384, 1-{3-t-butyl-1-[3-(3,3-dimethylureidomethyl)phenyl]-1H-pyrazol-5-yl}-3-(naphthalen 1-yl)urea] | 96%
CC(C)(C)c1cc(NC(=O)Nc2cccc(F)c2F)n(-c2ccc(CO)cc2)n1 [Example 315, 1-{3-t-butyl-1-[4-(hydroxymethyl)phenyl]-1H-pyrazol-5-yl}-3-(2,3-difluoro-phenyl)urea] | 54% @ 10
CCOC(=O)C(C)Cc1ccc(-n2nc(C(C)(C)C)cc2NC(=O)Nc2cccc3ccccc23)cc1 (centres unmarked) [Example 324, ethyl 3-(4-{3-t-butyl-5-[3-(naphthalen-1-yl)ureido]-1H-pyrazol-1-yl}phenyl)-2-methylpropanoate] | 40% @ 10
O=C(Nc1ccc(Cl)cc1)Nc1cc(-c2ccccc2)nn1-c1ccc(CO)cc1 [Example 331, 1-(4-chlorophenyl)-3-{1-[4-(hydroxymethyl)phenyl]-3-phenyl-1H-pyrazol-5-yl}-urea] | 71% @ 10
CCOC(=O)c1cccc(-n2nc(C)cc2NC(=O)Nc2cccc3ccccc23)c1 [Example 340, ethyl 3-{3-methyl-5-[3-(naphthalen-1-yl)ureido]-1H-pyrazol-1-yl}benzoate] | 31% @ 10

Same assay, conditions: Table 5; assay not named; read-out: uM

Compound | IC50 [µM]
CC(C)(C)c1cc(NC(=O)Nc2ccc(Cl)cc2)n(-c2cccc(CN3C(=O)C(=O)N(c4ccccc4)C3=O)c2)n1 [Example 391, 1-{3-t-butyl-1-(3-[(2,4,5-trioxo-3-phenylimidazolidin-1-yl)methyl]phenyl)-1H-pyrazol-5-yl}-3-(4-chlorophenyl)urea] | 0.91
CCOC(=O)Cc1ccc(-n2nc(C(C)(C)C)cc2NC(=O)Nc2cccc(Cl)c2Cl)cc1 [Example 318] | 0.67
CC(C)(C)c1cc(NC(=O)Nc2cccc(Cl)c2Cl)n(-c2ccc(CO)cc2)n1 [Example 363, 1-{3-t-butyl-1-[(hydroxymethyl)phenyl]-1H-pyrazol-5-yl}-3-(2,3-dichloro-phenyl)urea] | 0.19
CC(C)(C)c1cc(NC(=O)Nc2cccc3ccccc23)n(-c2cccc(CNC(=O)N3CCCC3)c2)n1 [Example 383, 1-(3-t-butyl-1-{3-[(pyrrolidine-1-carboxamido)methyl]phenyl}-1H-pyrazol-5-yl)-3-(naphthalen-1-yl)urea] | 0.1
CC(C)(C)c1cc(NC(=O)Nc2cccc3ccccc23)n(-c2cccc(CNC(=O)N3CCOCC3)c2)n1 [Example 382, 1-(3-t-butyl-1-{3-[(morpholine-4-carboxamido)methyl]phenyl}-1H-pyrazol-5-yl)-3-(naphthalen-1-yl)urea] | 0.88
CC(O)c1ccc(-n2nc(C(C)(C)C)cc2NC(=O)Nc2cccc3ccccc23)cc1 (centres unmarked) [Example 360, 1-{3-t-butyl 1-[4-(1-hydroxyethyl)phenyl]-1H-pyrazol-5-yl}-3-(naphthalen-1-yl)urea] | 0.39
CN1CCN(C(=O)NCc2cccc(-n3nc(C(C)(C)C)cc3NC(=O)Nc3cccc4ccccc34)c2)CC1 [Example 389, 1-{3-t-butyl-1-(3-[(1-methylpiperazine-4-carboxamido)methyl]phenyl}-1H-pyrazol-5-yl)-3-(naphthalen 1-yl)urea] | 0.09
Cn1[nH]c(=O)n(Cc2cccc(-n3nc(C(C)(C)C)cc3NC(=O)Nc3cccc(Cl)c3Cl)c2)c1=O [Example 408, 1-{5-t-butyl-2-[3-(1-methyl-3,5-dioxo-[1,2,4)triazolidin-4-ylmethyl)-phenyl]-2H-pyrazol-3-yl}-3-(2,3-dichloro-phenyl)-urea] | 0.116
O=C(Nc1cccc(C(F)(F)F)c1)Nc1cc(-c2ccccc2)nn1-c1cccc(CO)c1 [Example 354, 1-{3-phenyl-1-[3-(hydroxymethyl)phenyl]-1H-pyrazol-5-yl}-3-(3-trifluoromethylphenyl)urea] | 0.11
CNC(=O)Cc1cccc(-n2nc(C(C)(C)C)cc2NC(=O)Nc2cccc(Cl)c2Cl)c1 [Example 310] | 0.13
COc1cccc(NC(=O)Nc2cc(C(C)(C)C)nn2-c2cccc(CO)c2)c1 [Example 306, 1-{3-t-butyl-1-[3-(hydroxymethyl)phenyl]-1H-pyrazol-5-yl}-3-(3-methoxyphenyl)urea] | 0.058
CN1CCN(C(=O)Cc2ccc(-n3nc(-c4ccccc4)cc3NC(=O)Nc3cccc(Cl)c3Cl)cc2)CC1 [Example 475, 1-(2,3-dichlorophenyl)-3-(1-(4-(2-(4-methylpiperazin-1-yl)-2-oxoethyl)phenyl)-3-phenyl-1H-pyrazol-5-yl)urea] | 0.01

The next lines start with the values.

IC50 [µM] | Compound
0.819 | O=C(O)CCc1cccc(-n2nc(C(F)(F)F)cc2NC(=O)Nc2ccc(Cl)cc2)c1 [Example 427, 3-(3-(5-(3-(4 chlorophenyl)ureido)-3-(trifluoromethyl)-1H-pyrazol-1-yl)phenyl)propanoic acid]
1.65 | CN(C)C(=O)NCc1cccc(-n2nc(C(C)(C)C)cc2NC(=O)Nc2ccc(Cl)cc2)c1 [Example 388, 1-{3-t-butyl-1-[3-(3,3-dimethylureidomethyl)phenyl]-1H-pyrazol-5-yl}-3-(4-chlorophenyl)urea]
0.008 | CC(C)c1cc(NC(=O)Nc2cccc3ccccc23)n(-c2ccc(C(O)C(F)(F)F)cc2)n1 (centres unmarked) [Example 411, 1-(1-(4-(2,2,2-trifluoro-1-hydroxyethyl)phenyl)-3-isopropyl-1H-pyrazol-5-yl)-3-(naphthalen-1-yl)urea]
0.48 | CC(C)(C)c1cc(NC(=O)Nc2ccc(Cl)cc2)n(-c2cccc(CO)c2)n1 [Example 376]
1.07 | CC(C)c1cc(NC(=O)Nc2ccc(Cl)cc2)n(-c2cccc(CCC(=O)O)c2)n1 [Example 429, 3-(3-(5-(3-(4-chlorophenyl)ureido)-3-isopropyl-1H-pyrazol-1-yl)phenyl)propanoic acid]
0.13 | CCOC(=O)c1ccc(-n2nc(C(C)(C)C)cc2NC(=O)Nc2cccc3ccccc23)cc1 [Example 357, ethyl 4-{3-t-butyl-5-[3-(naphthalen-1-yl)ureido]-1H-pyrazol-1-yl}benzoate]
0.81 | CC(Cc1ccc(-n2nc(C(C)(C)C)cc2NC(=O)Nc2ccc(Cl)cc2)cc1)C(=O)O (centres unmarked) [Example 327, 3-(4-{3-t-butyl-5-[3-(4-chlorophenyl)ureido]-1H-pyrazol-1-yl}phenyl)-2-methylpropanoic acid]
2.2 | CCOC(=O)c1ccc(-n2nc(C(C)C)cc2NC(=O)Nc2ccc(Cl)cc2)cc1 [Example 334, ethyl 4-{5-[3-(4-chlorophenyl)ureido]-3-isopropyl-1H-pyrazol-1-yl}benzoate]
0.05 | CCOC(=O)c1cccc(-n2nc(C(C)C)cc2NC(=O)Nc2cccc3ccccc23)c1 [Example 332, ethyl 3-(3-isopropyl-5-[3-(naphthalen-1-yl)ureido]-1H-pyrazol-1-yl)benzoate]
0.182 | CCOC(=O)CCc1cccc(-n2nc(-c3ccccc3)cc2NC(=O)Nc2ccc(Cl)cc2)c1 [Example 311, 3-(3-{5-[3-(4-chlorophenyl)-ureido]-3-phenyl-pyrazol-1-yl}-phenyl)-propionic acid ethyl ester]
0.25 | CCOC(=O)CCc1cccc(-n2nc(C(C)C)cc2NC(=O)Nc2ccc(Cl)cc2)c1 [Example 313, ethyl 3-(3-(5-(3-(4-chlorophenyl)ureido)-3-isopropyl-1H-pyrazol-1-yl)phenyl)propanoate]

From patent US20090312349A1, “ANTI-INFLAMMATORY MEDICAMENTS” (priority 2004, published 2009)
